Paper PMC8453901, “GLPG1205, a GPR84 Modulator: Safety, Pharmacokinetics, and Pharmacodynamics in Healthy Subjects” (Clinical Pharmacology in Drug Development, 2021)

Assay: Safety and tolerability, study 1 SAD part
Assay type: in vivo, human
Experimental: Safety and tolerability were assessed on the basis of adverse events (AEs), which were monitored throughout both studies. Additional safety assessments included vital signs (including supine [and standing in study 2] heart rate, systolic and diastolic blood pressure, and oral body temperature), 12‐lead electrocardiogram (ECG), clinical laboratory tests (hematology, coagulation [study 2 only], serum/plasma chemistry, urinalysis, urine drug screen, serology, and alcohol breath test), and a comprehensive physical examination. In the SAD part of study 1, clinical laboratory tests, physical examination, and vital signs were assessed at the screening visit, at the time of dosing (0 hours after dose), 24 hours after dosing and at follow‐up (7 to 10 days after the final dose). Vital signs were additionally observed 2 hours after dosing, and the 12‐lead ECG was additionally completed at 1, 2, 6, 8, and 12 hours after dosing. In the MAD part of study 1, all additional safety assessments were performed at screening; days 1, 2, 8, 14, and 15; and at follow‐up. In study 2, additional safety assessments were performed at screening (between 21 and 2 days before the first study drug administration); days 1, 2, 5, 10, 14, 15, and 20 (clinical laboratory tests were not performed on day 20); at early discontinuation; and at follow‐up. For study 2, renal function tests (measurement of estimated creatinine clearance rate using the Cockcroft‐Gault equation) were also included in the clinical laboratory tests for safety assessment.
In both studies, the safety analysis was descriptive and focused on changes from baseline and treatment‐emergent findings.

O=c1nc(OC[C@@H]2COCCO2)cc2n1CCc1cc(C#CC3CC3)ccc1-2 [GLPG1205, 9‐cyclopropylethynyl‐2‐((S)‐1‐[1,4]dioxan‐2‐ylmethoxy)‐6,7‐dihydropyrimido[6,1‐a]isoquinolin‐4‐one]
3 (50.0) number of subjects (%): Any TEAE (single 400 mg (n = 6)) | Nervous system disorders (TEAE) (single 800 mg (n = 6))
4 subjects: subjects with nausea (most frequent TEAE) (SAD part, all doses)
0 number of subjects (%): Dizziness (TEAE) (single 10 mg (n = 6)) | Gastrointestinal disorders (TEAE) (single 10 mg (n = 6)) | Hot flush (TEAE) (single 10 mg (n = 6)) | Musculoskeletal and connective tissue disorders (TEAE) (single 10 mg (n = 6)) | Nausea (TEAE) (single 10 mg (n = 6)) | Oropharyngeal pain (TEAE) (single 10 mg (n = 6)) | Respiratory, thoracic, and mediastinal disorders (TEAE) (single 10 mg (n = 6)) | Somnolence (TEAE) (single 10 mg (n = 6)) | Torticollis (TEAE) (single 10 mg (n = 6)) | Vascular disorders (TEAE) (single 10 mg (n = 6)) | Dizziness (TEAE) (single 30 mg (n = 6)) | Gastrointestinal disorders (TEAE) (single 30 mg (n = 6)) | Headache (TEAE) (single 30 mg (n = 6)) | Hot flush (TEAE) (single 30 mg (n = 6)) | Infections and infestations (TEAE) (single 30 mg (n = 6)) | Musculoskeletal and connective tissue disorders (TEAE) (single 30 mg (n = 6)) | Nausea (TEAE) (single 30 mg (n = 6)) | Oropharyngeal pain (TEAE) (single 30 mg (n = 6)) | Respiratory, thoracic, and mediastinal disorders (TEAE) (single 30 mg (n = 6)) | Torticollis (TEAE) (single 30 mg (n = 6)) | Urethritis chlamydial (TEAE) (single 30 mg (n = 6)) | Vascular disorders (TEAE) (single 30 mg (n = 6)) | Any TEAE (single 90 mg (n = 6)) | Dizziness (TEAE) (single 90 mg (n = 6)) | Gastrointestinal disorders (TEAE) (single 90 mg (n = 6)) | Headache (TEAE) (single 90 mg (n = 6)) | Hot flush (TEAE) (single 90 mg (n = 6)) | Infections and infestations (TEAE) (single 90 mg (n = 6)) | Musculoskeletal and connective tissue disorders (TEAE) (single 90 mg (n = 6)) | Nausea (TEAE) (single 90 mg (n = 6)) | Nervous system disorders (TEAE) (single 90 mg (n = 6)) | Oropharyngeal pain (TEAE) (single 90 mg (n = 6)) | Respiratory, thoracic, and mediastinal disorders (TEAE) (single 90 mg (n = 6)) | Somnolence (TEAE) (single 90 mg (n = 6)) | Torticollis (TEAE) (single 90 mg (n = 6)) | Urethritis chlamydial (TEAE) (single 90 mg (n = 6)) | Vascular disorders (TEAE) (single 90 mg (n = 6)) | Dizziness (TEAE) (single 200 mg (n = 6)) | Headache (TEAE) (single 200 mg (n = 6)) | Hot flush (TEAE) (single 200 mg (n = 6)) | Infections and infestations (TEAE) (single 200 mg (n = 6)) | Musculoskeletal and connective tissue disorders (TEAE) (single 200 mg (n = 6)) | Nervous system disorders (TEAE) (single 200 mg (n = 6)) | Oropharyngeal pain (TEAE) (single 200 mg (n = 6)) | Respiratory, thoracic, and mediastinal disorders (TEAE) (single 200 mg (n = 6)) | Somnolence (TEAE) (single 200 mg (n = 6)) | Torticollis (TEAE) (single 200 mg (n = 6)) | Urethritis chlamydial (TEAE) (single 200 mg (n = 6)) | Vascular disorders (TEAE) (single 200 mg (n = 6)) | Dizziness (TEAE) (single 400 mg (n = 6)) | Infections and infestations (TEAE) (single 400 mg (n = 6)) | Oropharyngeal pain (TEAE) (single 400 mg (n = 6)) | Respiratory, thoracic, and mediastinal disorders (TEAE) (single 400 mg (n = 6)) | Somnolence (TEAE) (single 400 mg (n = 6)) | Urethritis chlamydial (TEAE) (single 400 mg (n = 6)) | Any TEAE (single 600 mg (n = 6)) | Dizziness (TEAE) (single 600 mg (n = 6)) | Gastrointestinal disorders (TEAE) (single 600 mg (n = 6)) | Headache (TEAE) (single 600 mg (n = 6)) | Hot flush (TEAE) (single 600 mg (n = 6)) | Infections and infestations (TEAE) (single 600 mg (n = 6)) | Musculoskeletal and connective tissue disorders (TEAE) (single 600 mg (n = 6)) | Nausea (TEAE) (single 600 mg (n = 6)) | Nervous system disorders (TEAE) (single 600 mg (n = 6)) | Oropharyngeal pain (TEAE) (single 600 mg (n = 6)) | Respiratory, thoracic, and mediastinal disorders (TEAE) (single 600 mg (n = 6)) | Somnolence (TEAE) (single 600 mg (n = 6)) | Torticollis (TEAE) (single 600 mg (n = 6)) | Urethritis chlamydial (TEAE) (single 600 mg (n = 6)) | Vascular disorders (TEAE) (single 600 mg (n = 6)) | Hot flush (TEAE) (single 800 mg (n = 6)) | Infections and infestations (TEAE) (single 800 mg (n = 6)) | Musculoskeletal and connective tissue disorders (TEAE) (single 800 mg (n = 6)) | Torticollis (TEAE) (single 800 mg (n = 6)) | Urethritis chlamydial (TEAE) (single 800 mg (n = 6)) | Vascular disorders (TEAE) (single 800 mg (n = 6))
5 (83.3) number of subjects (%): Any TEAE (single 800 mg (n = 6))
1 (16.7) number of subjects (%): Headache (TEAE) (single 10 mg (n = 6)) | Infections and infestations (TEAE) (single 10 mg (n = 6)) | Nervous system disorders (TEAE) (single 10 mg (n = 6)) | Urethritis chlamydial (TEAE) (single 10 mg (n = 6)) | Any TEAE (single 30 mg (n = 6)) | Nervous system disorders (TEAE) (single 30 mg (n = 6)) | Somnolence (TEAE) (single 30 mg (n = 6)) | Any TEAE (single 200 mg (n = 6)) | Gastrointestinal disorders (TEAE) (single 200 mg (n = 6)) | Nausea (TEAE) (single 200 mg (n = 6)) | Gastrointestinal disorders (TEAE) (single 400 mg (n = 6)) | Headache (TEAE) (single 400 mg (n = 6)) | Hot flush (TEAE) (single 400 mg (n = 6)) | Musculoskeletal and connective tissue disorders (TEAE) (single 400 mg (n = 6)) | Nausea (TEAE) (single 400 mg (n = 6)) | Nervous system disorders (TEAE) (single 400 mg (n = 6)) | Torticollis (TEAE) (single 400 mg (n = 6)) | Vascular disorders (TEAE) (single 400 mg (n = 6)) | Dizziness (TEAE) (single 800 mg (n = 6)) | Headache (TEAE) (single 800 mg (n = 6)) | Somnolence (TEAE) (single 800 mg (n = 6))
2 (33.3) number of subjects (%): Any TEAE (single 10 mg (n = 6)) | Gastrointestinal disorders (TEAE) (single 800 mg (n = 6)) | Nausea (TEAE) (single 800 mg (n = 6)) | Oropharyngeal pain (TEAE) (single 800 mg (n = 6)) | Respiratory, thoracic, and mediastinal disorders (TEAE) (single 800 mg (n = 6))
